Reference: BindingDB's records for patent US20250382308 (Nuevolution, 2025)

Experiments:
[1] = target: T1, Bromodomain-containing protein 4 [353-454] (Homo sapiens, UniProt O60885); assay: Bromodomain Assay
T1 construct: 353-454
Method: (§1) The liganded beads were blocked with excess biotin and washed with blocking buffer (SeaBlock (Pierce), 1% BSA (bovine serum albumin), 0.05% Tween 20, 1 mM DTT (dithiothreitol)) to remove unbound ligand and to reduce non-specific phage binding. […] Test compounds were prepared as 1000× stocks in 100% DMSO and subsequently diluted 1:10 in monoethylene glycol (MEG) to create stocks at 100× the screening concentration (resulting stock solution is 10% DMSO/90% MEG). The compounds were then diluted directly into the assays such that the final concentration of DMSO and MEG were 0.1% and 0.9%, respectively. All reactions were performed in polystyrene 96-well plates in a final volume of 0.135 ml. […] The bromodomain concentration in the eluates was measured by qPCR (quantitative real-time polymerase chain reaction).

[2] = target: T2, Bromodomain-containing protein 4 [58-164] (Homo sapiens, UniProt O60885); assay: Bromodomain Assay
T2 construct: 58-164
Method: as §1

[3] = target: cGMP-inhibited 3',5'-cyclic phosphodiesterase 3A (Homo sapiens, UniProt Q14432); assay: Radiometric PDE3A Assay
Method: Partially purified human recombinant phosphodiesterase (PDE3A) was obtained by cloning cDNA and expressing in S. frugiperda insect cells using a baculovirus expression system. Cells were harvested from culture by centrifuging at 400×g for 5 minutes. Cell pellet was resuspended in 20 ml of RIPA Buffer (150 mM NaCl, 10 mM Tris, 0.1% NP-40, pH8.3), 4 ml/200 ml of culture, plus protease inhibitors (100 μl/10 ml) and incubated on ice for 10-20 minutes then spun at 3500×g for 10 minutes at 4° C. Supernatant was kept and the pellet thrown away. Tritium-labeled cyclic AMP was hydrolysed to 5′-AMP by PDE3A. The 5′-AMP was then further hydrolysed to adenosine by nucleotidase in snake venom. An anion-exchange resin binds all charged nucleotides and leaves [3H]adenosine as the only labeled compound to be counted by liquid scintillation. The radiometric assay method is a modification of the two-step method of Thompson and Appleman [Biochemistry 10; 311-316; 1971], adapted for a 96 well plate format. 50 μl of diluted PDE3A was incubated with 50 μl of [3H]-CAMP (specific activity 25 Ci/mmol) and 11 μl of 50% DMSO (or compound dilution) for 20 minutes at 30° C. […] 50 μl of supernatant was removed and added to 200 μl of MicroScint-20 in white plates (Greiner 96-well Optiplate) and shaken for 30 minutes before reading on Perkin Elmer TopCount Scintillation Counter.

cGMP-inhibited 3',5'-cyclic phosphodiesterase 3A, sequence (Q14432 whole entry): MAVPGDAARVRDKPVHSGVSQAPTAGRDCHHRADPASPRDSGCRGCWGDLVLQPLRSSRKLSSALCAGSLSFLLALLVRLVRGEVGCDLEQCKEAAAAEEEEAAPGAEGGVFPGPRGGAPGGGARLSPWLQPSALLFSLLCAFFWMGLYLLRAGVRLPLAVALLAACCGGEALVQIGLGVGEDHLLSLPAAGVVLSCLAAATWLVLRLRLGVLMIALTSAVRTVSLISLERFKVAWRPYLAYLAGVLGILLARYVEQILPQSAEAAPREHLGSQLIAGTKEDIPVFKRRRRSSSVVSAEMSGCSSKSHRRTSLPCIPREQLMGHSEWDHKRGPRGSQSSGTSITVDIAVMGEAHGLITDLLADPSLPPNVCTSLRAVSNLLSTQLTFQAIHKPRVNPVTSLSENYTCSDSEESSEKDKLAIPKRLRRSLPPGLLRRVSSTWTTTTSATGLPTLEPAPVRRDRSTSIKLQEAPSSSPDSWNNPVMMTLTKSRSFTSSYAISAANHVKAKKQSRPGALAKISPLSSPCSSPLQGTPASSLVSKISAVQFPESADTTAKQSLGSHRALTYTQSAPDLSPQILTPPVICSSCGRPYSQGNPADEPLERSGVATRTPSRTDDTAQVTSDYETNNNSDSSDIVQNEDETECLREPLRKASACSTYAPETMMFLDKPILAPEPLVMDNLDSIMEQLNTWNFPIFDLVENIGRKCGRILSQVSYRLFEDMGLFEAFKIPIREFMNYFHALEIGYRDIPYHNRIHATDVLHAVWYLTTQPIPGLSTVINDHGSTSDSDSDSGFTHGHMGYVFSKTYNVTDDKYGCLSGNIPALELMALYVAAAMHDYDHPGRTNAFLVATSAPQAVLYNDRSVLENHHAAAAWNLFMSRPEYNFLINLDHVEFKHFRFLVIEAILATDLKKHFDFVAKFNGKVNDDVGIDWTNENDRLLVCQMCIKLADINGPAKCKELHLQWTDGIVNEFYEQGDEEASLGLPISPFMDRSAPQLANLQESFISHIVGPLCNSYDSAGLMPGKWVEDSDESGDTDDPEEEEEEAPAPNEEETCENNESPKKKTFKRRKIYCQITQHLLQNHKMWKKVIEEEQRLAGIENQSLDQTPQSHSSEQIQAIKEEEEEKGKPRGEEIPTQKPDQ

Compound	Kd [1]	Kd [2]	IC50 [3]
COc1cc(NC(=O)c2cc3c(nc2N2CCC(F)(F)C2)COC3)cc2c(C)cc(=O)[nH]c12 [US20250382308, Example 16]	0.9 µM	0.021 µM	–
CCN(CC)c1nc2c(cc1C(=O)Nc1cc(OC)c3[nH]c(=O)cc(C)c3c1)COC2 [US20250382308, Example 27]	0.6 µM	0.025 µM	> 10 µM
